Data as given in ChEMBL document CHEMBL5316339, “Discovery of a Series of Substituted 1H-((1,2,3-Triazol-4-yl)methoxy)pyrimidines as Brain Penetrants and Potent GluN2B-Selective Negative Allosteric Modulators” (J Med Chem, 2023).
pIC50, pKi: −log10 of the molar value. Converted amounts (≈) assume the structure as drawn.

Legend:
[1] = molecular target: Cytochrome P450 2C19 (Homo sapiens, UniProt P33261); experiment: Inhibition of CYP2C19 in human liver microsomes incubated for 10 mins by LC-MS/MS analysis; format: ADME, Microsome
[2] = Volume of distribution at steady state in Sprague-Dawley rat at 5 mg/kg, po or 1 mg/kg, iv measured for 24 hrs by LC-MS/MS analysis; format: ADME, organism-based; conditions: in vivo
[3] = Thermodynamic solubility in aqueous phosphate buffer at pH 7; format: physicochemical; conditions: read-out: Therm_solubility
[4] = Plasma protein binding in Sprague-Dawley rat assessed as free fraction; format: ADME, cell-free
[5] = molecular target: T1, Cytochrome P450 2C8 (Homo sapiens, UniProt P10632); experiment: Inhibition of CYP2C8 in human liver microsomes incubated for 10 mins by LC-MS/MS analysis; format: ADME, Microsome
T1 sequence (P10632 whole entry): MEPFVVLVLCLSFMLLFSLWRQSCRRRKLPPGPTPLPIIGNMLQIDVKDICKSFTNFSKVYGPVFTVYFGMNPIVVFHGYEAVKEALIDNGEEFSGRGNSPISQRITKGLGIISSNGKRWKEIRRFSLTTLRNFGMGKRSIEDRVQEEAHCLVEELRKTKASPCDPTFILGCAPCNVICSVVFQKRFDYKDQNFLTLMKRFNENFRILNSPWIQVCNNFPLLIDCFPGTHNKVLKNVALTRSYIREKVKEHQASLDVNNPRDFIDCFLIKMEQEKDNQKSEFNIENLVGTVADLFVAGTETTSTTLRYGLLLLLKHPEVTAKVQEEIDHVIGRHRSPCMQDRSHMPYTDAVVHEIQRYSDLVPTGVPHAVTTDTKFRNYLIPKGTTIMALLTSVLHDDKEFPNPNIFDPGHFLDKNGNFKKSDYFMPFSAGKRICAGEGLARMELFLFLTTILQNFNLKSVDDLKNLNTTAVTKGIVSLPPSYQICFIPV

[6] = Unbound brain to plasma concentration ratio in Sprague-Dawley rat at 10 mg/kg, po measured after 0.5 hrs; format: ADME, organism-based; conditions: brain and plasma, read-out: K(p,uu,brain)
[7] = Metabolic stability in rat liver microsomes assessed as extraction ratio; format: ADME, Microsome; conditions: read-out: ERH
[8] = Unbound brain to plasma concentration ratio in Sprague-Dawley rat at 10 mg/kg, po measured after 2 hrs; format: ADME, organism-based; conditions: brain and plasma, read-out: K(p,uu,brain)
[9] = system: Brain; experiment: Ex vivo receptor occupancy at GluN2B receptor in Sprague-Dawley rat brain at 10 mg/kg, po measured after 2 hrs by 3 [3H] 1-(azetidin- 1-yl-2[6-(4-fluoro-3-methyl-pheny)pyrrolo[3,2-b]pyridin-1-yl]ethanon based autoradiography relative to control; format: functional
[10] = Drug concentration in Sprague-Dawley rat brain assessed as free fraction; format: ADME, tissue-based
[11] = system: Brain; experiment: Ex vivo receptor occupancy at GluN2B receptor in Sprague-Dawley rat brain at 10 mg/kg, po measured after 6 hrs by 3 [3H] 1-(azetidin- 1-yl-2[6-(4-fluoro-3-methyl-pheny)pyrrolo[3,2-b]pyridin-1-yl]ethanon based autoradiography relative to control; format: functional
[12] = molecular target: Glutamate receptor ionotropic, NMDA 2D (Homo sapiens, UniProt O15399+Q05586); experiment: Inhibition of human GluN2D receptor by FLIPR assay
[13] = system: Brain; experiment: Ex vivo receptor occupancy at GluN2B receptor in Sprague-Dawley rat brain at 10 mg/kg, po measured after 0.5 hrs by 3 [3H] 1-(azetidin- 1-yl-2[6-(4-fluoro-3-methyl-pheny)pyrrolo[3,2-b]pyridin-1-yl]ethanon based autoradiography relative to control; format: functional
[14] = Drug concentration in Sprague-Dawley rat brain at 10 mg/kg, po measured after 0.5 hrs; format: ADME, organism-based; conditions: read-out: Ct
[15] = molecular target: Cytochrome P450 2C9 (Homo sapiens, UniProt P11712); experiment: Inhibition of CYP2C9 in human liver microsomes incubated for 10 mins by LC-MS/MS analysis; format: ADME, Microsome
[16] = Oral bioavailability in Sprague-Dawley rat at 5 mg/kg measured for 24 hrs by LC-MS/MS analysis; format: ADME, organism-based; conditions: in vivo
[17] = Metabolic stability in human liver microsomes assessed as extraction ratio; format: ADME, Microsome; conditions: read-out: ERH
[18] = molecular target: Glutamate receptor ionotropic, NMDA 2C (Homo sapiens, UniProt Q05586+Q14957); experiment: Inhibition of human GluN2C receptor by FLIPR assay
[19] = molecular target: T2, Cytochrome P450 1A2 (Homo sapiens, UniProt P05177); experiment: Inhibition of CYP1A2 in human liver microsomes incubated for 10 mins by LC-MS/MS analysis; format: ADME, Microsome
T2 sequence (P05177 whole entry): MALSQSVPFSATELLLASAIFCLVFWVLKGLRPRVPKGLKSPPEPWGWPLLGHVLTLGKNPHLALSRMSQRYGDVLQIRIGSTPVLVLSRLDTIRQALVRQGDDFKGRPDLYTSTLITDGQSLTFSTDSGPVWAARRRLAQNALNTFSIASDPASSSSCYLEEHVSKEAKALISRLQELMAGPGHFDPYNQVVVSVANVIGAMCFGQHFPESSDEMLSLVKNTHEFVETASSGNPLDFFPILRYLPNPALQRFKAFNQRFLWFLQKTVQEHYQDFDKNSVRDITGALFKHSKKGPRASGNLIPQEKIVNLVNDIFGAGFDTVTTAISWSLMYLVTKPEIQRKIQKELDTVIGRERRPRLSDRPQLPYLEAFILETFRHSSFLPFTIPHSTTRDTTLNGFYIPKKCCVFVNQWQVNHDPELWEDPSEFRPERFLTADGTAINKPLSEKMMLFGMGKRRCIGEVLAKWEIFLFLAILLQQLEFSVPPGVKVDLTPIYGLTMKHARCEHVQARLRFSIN

[20] = Thermodynamic solubility in aqueous phosphate buffer at pH 2; format: physicochemical; conditions: read-out: Therm_solubility
[21] = system: Hippocampus; experiment: Ex vivo receptor occupancy at GluN2B receptor in Sprague-Dawley rat hippocampus administered orally and measured after 0.5 hrs by 3-[3H] 1-(azetidin- 1-yl-2[6-(4-fluoro-3-methyl-pheny)pyrrolo[3,2-b]pyridin-1-yl]ethanon based autoradiography; format: functional; conditions: route po
[22] = molecular target: Voltage-gated inwardly rectifying potassium channel KCNH2 (Homo sapiens, UniProt Q12809); experiment: Displacement of [3H]dofetilide from human ERG expressed in HEK293 cells; format: toxicity, cell-based
[23] = Drug concentration in Sprague-Dawley rat plasma at 10 mg/kg, po measured after 0.5 hrs; format: ADME, organism-based
[24] = Cmax in Sprague-Dawley rat at 5 mg/kg, po measured for 24 hrs by LC-MS/MS analysis; format: ADME, organism-based; set-up: time 24 hrs, dose 5 mg/kg, route po; conditions: in vivo
[25] = Drug concentration in Sprague-Dawley rat plasma at 10 mg/kg, po measured after 6 hrs; format: ADME, organism-based
[26] = Drug concentration in Sprague-Dawley rat plasma at 10 mg/kg, po measured after 2 hrs; format: ADME, organism-based
[27] = system: MDR1 (P-gp); experiment: Efflux ratio of apparent permeability from basolateral to apical side over apical to basolateral side in MDCK-MDR1 cells at 5 uM incubated for 60 mins by LC-MS/MS analysis; format: ADME, cell-based, Canis lupus familiaris; conditions: dog
[28] = molecular target: Cytochrome P450 2D6 (Homo sapiens, UniProt P10635); experiment: Inhibition of CYP2D6 in human liver microsomes incubated for 10 mins by LC-MS/MS analysis; format: ADME, Microsome
[29] = molecular target: Glutamate receptor ionotropic, NMDA 2A (Homo sapiens, UniProt Q05586+Q12879); experiment: Inhibition of human GluN2A receptor by FLIPR assay
[30] = molecular target: Cytochrome P450 3A4 (Homo sapiens, UniProt P08684); experiment: Inhibition of CYP3A4 in human liver microsomes incubated for 10 mins by LC-MS/MS analysis; format: ADME, Microsome
[31] = Drug concentration in Sprague-Dawley rat brain at 10 mg/kg, po measured after 2 hrs; format: ADME, organism-based; conditions: read-out: Ct
[32] = molecular target: Glutamate receptor ionotropic, NMDA 2B (Rattus norvegicus, UniProt Q00960); experiment: Displacement of 3-(3H) 1-(azetidin-1-yl)-2-(6- (4-fluoro-3-methyl-phenyl)pyrrolo-[…] pyridin-1yl)ethanone from GluN2B receptor in rat cortical membrane assessed as inhibition constant incubated for 2 hrs under shaking condition by liquid scintillator counter analysis; format: cell membranes, Cortex
[33] = molecular target: Glutamate NMDA receptor; GRIN1/GRIN2B (Homo sapiens, UniProt Q05586+Q13224); experiment: Negative allosteric modulation of human GluN1A/GluN2B receptor expressed in T-REX-CHO cells preincubated for 5 mins followed by glutamate and glycine addition and measured after 5 mins by FLIPR assay; format: cell-based
[34] = Solubility in aqueous buffer at pH 7; format: physicochemical
[35] = Drug metabolism in human liver microsomes assessed as O-dearylation mediated metabolite formation; format: ADME, Microsome
[36] = Drug metabolism in rat liver microsomes assessed as acid metabolite 2-((1-(3-(difluoromethoxy)-4-fluorophenyl)-1H-1,2,3-triazol-4-yl)methoxy)pyrimidine-5-carboxylic acid formation; format: ADME, Microsome
[37] = Drug metabolism in rat liver microsomes assessed as hydroxylated metabolite (2-((1-(3-(difluoromethoxy)-4-fluorophenyl)-1H-1,2,3-triazol-4-yl)methoxy)pyrimidin-5-yl)methanol formation; format: ADME, Microsome
[38] = Drug metabolism in rat liver microsomes assessed as O-dearylation mediated metabolite formation; format: ADME, Microsome
[39] = Solubility in aqueous buffer at pH 2; format: physicochemical
[40] = Drug metabolism in human liver microsomes assessed as acid metabolite 2-((1-(3-(difluoromethoxy)-4-fluorophenyl)-1H-1,2,3-triazol-4-yl)methoxy)pyrimidine-5-carboxylic acid formation; format: ADME, Microsome
[41] = Drug metabolism in human liver microsomes assessed as hydroxylated metabolite (2-((1-(3-(difluoromethoxy)-4-fluorophenyl)-1H-1,2,3-triazol-4-yl)methoxy)pyrimidin-5-yl)methanol formation; format: ADME, Microsome
[42] = system: Hippocampus; experiment: Ex vivo receptor occupancy at GluN2B receptor in Sprague-Dawley rat hippocampus administered orally and measured after 2 hrs by 3-[3H] 1-(azetidin- 1-yl-2[6-(4-fluoro-3-methyl-pheny)pyrrolo[3,2-b]pyridin-1-yl]ethanon based autoradiography; format: functional; conditions: route po

Chain of Voltage-gated inwardly rectifying potassium channel KCNH2 (Q12809 whole entry): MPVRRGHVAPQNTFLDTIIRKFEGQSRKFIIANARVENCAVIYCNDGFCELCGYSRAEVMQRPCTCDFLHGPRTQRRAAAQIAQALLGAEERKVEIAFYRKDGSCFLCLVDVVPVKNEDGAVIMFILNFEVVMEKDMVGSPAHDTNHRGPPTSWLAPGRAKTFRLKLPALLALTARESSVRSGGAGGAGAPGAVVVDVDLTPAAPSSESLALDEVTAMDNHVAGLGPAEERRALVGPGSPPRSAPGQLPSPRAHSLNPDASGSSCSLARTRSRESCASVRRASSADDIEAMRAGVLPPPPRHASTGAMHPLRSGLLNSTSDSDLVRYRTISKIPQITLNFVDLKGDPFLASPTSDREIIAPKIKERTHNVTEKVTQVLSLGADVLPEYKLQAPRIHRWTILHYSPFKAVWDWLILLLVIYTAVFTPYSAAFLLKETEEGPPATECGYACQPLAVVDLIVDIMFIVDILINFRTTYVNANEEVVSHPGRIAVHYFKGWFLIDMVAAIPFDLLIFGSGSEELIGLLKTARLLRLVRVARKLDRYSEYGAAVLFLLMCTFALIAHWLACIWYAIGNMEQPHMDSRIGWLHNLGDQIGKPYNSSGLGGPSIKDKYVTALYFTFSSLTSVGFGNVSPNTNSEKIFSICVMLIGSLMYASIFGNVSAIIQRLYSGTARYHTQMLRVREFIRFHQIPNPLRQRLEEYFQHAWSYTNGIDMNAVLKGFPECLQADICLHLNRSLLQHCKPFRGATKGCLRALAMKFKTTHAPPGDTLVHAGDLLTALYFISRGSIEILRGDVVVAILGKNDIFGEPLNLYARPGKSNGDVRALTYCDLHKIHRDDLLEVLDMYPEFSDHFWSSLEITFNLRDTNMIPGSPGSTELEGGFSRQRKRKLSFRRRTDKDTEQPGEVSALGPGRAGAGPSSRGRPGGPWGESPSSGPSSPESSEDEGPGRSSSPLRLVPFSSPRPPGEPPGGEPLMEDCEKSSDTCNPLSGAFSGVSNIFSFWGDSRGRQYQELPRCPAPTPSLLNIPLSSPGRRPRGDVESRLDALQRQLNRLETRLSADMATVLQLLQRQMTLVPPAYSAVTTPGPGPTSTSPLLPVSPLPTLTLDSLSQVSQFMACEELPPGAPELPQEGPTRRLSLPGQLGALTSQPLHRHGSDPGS
Chain of Glutamate receptor ionotropic, NMDA 2B (Q00960 whole entry): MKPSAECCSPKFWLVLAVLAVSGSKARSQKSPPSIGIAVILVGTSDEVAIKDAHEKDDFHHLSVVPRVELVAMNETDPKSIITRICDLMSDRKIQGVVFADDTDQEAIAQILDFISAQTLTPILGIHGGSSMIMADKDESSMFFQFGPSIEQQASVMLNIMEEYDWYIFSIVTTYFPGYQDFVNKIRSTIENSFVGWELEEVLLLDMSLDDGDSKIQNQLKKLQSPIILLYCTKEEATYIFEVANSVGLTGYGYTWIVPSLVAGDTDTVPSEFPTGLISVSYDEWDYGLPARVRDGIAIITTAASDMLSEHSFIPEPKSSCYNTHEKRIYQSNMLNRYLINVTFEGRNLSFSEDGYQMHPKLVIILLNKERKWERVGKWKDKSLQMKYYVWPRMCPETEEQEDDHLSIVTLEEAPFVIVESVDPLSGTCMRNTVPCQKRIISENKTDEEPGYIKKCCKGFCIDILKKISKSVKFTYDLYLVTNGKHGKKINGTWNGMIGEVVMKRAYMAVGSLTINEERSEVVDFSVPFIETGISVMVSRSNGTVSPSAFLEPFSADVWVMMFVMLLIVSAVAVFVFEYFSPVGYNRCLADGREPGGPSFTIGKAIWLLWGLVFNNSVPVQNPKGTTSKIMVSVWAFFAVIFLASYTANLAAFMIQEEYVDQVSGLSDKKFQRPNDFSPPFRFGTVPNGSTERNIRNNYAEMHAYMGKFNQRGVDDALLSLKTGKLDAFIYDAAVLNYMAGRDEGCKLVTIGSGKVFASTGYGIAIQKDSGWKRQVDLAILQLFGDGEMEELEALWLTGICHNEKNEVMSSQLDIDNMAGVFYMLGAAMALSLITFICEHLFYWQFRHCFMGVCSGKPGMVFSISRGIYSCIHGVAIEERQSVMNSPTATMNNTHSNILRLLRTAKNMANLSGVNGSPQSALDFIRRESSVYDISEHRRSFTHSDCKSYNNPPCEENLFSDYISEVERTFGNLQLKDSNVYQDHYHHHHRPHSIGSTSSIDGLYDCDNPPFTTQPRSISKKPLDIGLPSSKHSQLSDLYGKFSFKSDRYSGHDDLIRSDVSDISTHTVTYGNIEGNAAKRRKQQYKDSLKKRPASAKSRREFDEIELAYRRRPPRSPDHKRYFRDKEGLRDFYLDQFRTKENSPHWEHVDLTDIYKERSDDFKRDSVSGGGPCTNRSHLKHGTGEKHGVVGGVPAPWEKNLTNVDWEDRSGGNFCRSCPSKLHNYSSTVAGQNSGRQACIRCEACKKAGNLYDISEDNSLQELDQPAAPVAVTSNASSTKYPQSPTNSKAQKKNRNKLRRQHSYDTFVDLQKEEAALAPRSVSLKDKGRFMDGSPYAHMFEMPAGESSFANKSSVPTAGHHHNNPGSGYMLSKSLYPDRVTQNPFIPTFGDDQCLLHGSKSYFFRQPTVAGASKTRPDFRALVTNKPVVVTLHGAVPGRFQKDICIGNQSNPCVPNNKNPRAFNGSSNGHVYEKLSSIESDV
Chain of Cytochrome P450 2D6 (P10635 whole entry): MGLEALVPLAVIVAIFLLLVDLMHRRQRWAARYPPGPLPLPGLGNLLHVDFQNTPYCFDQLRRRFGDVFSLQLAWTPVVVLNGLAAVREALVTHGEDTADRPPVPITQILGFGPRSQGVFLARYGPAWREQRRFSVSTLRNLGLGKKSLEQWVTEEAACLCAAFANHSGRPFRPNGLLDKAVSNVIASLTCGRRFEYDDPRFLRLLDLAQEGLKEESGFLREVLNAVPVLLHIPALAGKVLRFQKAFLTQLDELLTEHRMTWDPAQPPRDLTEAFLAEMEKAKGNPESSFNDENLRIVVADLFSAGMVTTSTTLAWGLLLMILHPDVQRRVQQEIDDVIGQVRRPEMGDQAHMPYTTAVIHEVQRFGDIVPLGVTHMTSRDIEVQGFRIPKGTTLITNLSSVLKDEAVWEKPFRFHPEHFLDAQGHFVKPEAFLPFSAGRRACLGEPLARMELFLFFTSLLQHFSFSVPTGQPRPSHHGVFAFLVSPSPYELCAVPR
Chain of Cytochrome P450 2C19 (P33261 whole entry): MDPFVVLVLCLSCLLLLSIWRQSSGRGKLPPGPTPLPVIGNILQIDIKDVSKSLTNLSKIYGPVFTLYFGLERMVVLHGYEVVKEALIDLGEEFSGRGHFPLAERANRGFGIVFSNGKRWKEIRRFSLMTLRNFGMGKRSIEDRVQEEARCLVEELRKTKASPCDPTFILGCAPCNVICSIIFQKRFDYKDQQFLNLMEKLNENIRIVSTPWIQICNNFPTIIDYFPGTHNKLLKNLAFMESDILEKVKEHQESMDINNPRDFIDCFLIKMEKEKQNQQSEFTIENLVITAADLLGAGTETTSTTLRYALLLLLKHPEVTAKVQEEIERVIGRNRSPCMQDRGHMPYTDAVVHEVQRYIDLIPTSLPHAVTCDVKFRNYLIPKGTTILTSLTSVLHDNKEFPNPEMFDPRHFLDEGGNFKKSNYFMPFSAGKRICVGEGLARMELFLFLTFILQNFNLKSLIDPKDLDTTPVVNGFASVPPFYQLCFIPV
Chain of Cytochrome P450 3A4 (P08684 whole entry): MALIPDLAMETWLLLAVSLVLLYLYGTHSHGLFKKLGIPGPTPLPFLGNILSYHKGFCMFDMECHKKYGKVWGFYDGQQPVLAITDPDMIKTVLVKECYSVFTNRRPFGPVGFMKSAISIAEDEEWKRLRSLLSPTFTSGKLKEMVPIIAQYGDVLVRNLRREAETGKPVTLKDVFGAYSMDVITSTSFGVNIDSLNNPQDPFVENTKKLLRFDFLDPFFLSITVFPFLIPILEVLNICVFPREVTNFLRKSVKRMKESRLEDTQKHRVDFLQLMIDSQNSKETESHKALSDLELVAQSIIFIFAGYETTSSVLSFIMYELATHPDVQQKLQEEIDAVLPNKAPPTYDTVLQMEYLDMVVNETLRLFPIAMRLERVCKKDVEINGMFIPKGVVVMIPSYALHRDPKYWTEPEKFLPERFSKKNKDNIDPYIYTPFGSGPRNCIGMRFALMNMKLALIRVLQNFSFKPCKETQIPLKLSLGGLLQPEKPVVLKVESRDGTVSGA
Chain of Cytochrome P450 2C9 (P11712 whole entry): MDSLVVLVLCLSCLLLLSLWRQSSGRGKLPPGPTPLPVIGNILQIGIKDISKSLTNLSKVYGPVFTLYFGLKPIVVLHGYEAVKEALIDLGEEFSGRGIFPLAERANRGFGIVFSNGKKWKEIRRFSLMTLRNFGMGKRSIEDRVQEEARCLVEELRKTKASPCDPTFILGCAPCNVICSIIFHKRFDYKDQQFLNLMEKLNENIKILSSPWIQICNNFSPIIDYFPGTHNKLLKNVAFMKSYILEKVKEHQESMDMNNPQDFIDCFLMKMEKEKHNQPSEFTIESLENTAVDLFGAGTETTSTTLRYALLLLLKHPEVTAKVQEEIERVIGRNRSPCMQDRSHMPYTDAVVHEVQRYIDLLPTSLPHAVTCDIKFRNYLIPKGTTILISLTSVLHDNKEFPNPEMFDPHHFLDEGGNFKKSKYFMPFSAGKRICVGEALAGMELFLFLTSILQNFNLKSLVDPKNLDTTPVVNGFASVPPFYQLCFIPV

COCc1ccnc(OCc2cn(-c3ccc(F)c(OC(F)F)c3)nn2)n1
pIC50 [1]: < 5.00 | Vdss [2]: 0.4 L/kg | solubility thermodynamic [3]: 260 µM (≈ 99.1 µg/mL) | fraction unbound [4]: 0.0236 | pIC50 [5]: < 5.00 | Kp uu at 0.5 h [6]: 0.65 | hepatic extraction ratio [7]: 0.6 | Kp uu at 2 h [8]: 0.76 | Occ [9]: 54% | fraction unbound [10]: 0.0882 | Occ [11]: 8% | pIC50 [12]: < 5.00 | Occ [13]: 77% | concentration at 0.5 h [14]: 340 ng/g | pIC50 [15]: < 5.00 | bioavailability [16]: 42% | hepatic extraction ratio [17]: 0.47 | pIC50 [18]: < 5.00 | pIC50 [19]: < 5.00 | solubility thermodynamic [20]: 280 µM (≈ 107 µg/mL) | ED50 [21]: 1.7 mg/kg | pIC50 [22]: < 5.00 | concentration at 0.5 h [23]: 1980 ng/mL | Cmax [24]: 1630 ng/mL | concentration at 6 h [25]: 6.7 ng/mL | concentration at 2 h [26]: 235 ng/mL | efflux ratio at 1 h, 5 µM [27]: 1.1 | pIC50 [28]: < 5.00 | pIC50 [29]: < 5.00 | pIC50 [30]: < 5.00 | concentration at 2 h [31]: 47 ng/g | pKi [32]: 7.49

Cc1cnc(OCc2cn(-c3ccc(F)c(OC(F)F)c3)nn2)nc1
hepatic extraction ratio [7]: 0.37 | pIC50 [33]: 8.46 | solubility [34]: 7.6 µM (≈ 2.67 µg/mL) | Drug metabolism [35]: Metabolite_Notdetected | Drug metabolism [36]: Metabolite_Detected | hepatic extraction ratio [17]: 0.57 | Drug metabolism [37]: Metabolite_Detected | Drug metabolism [38]: Metabolite_Notdetected | pIC50 [22]: < 5.00 | solubility [39]: 7.6 µM (≈ 2.67 µg/mL) | Drug metabolism [40]: Metabolite_Detected | Drug metabolism [41]: Metabolite_Detected | efflux ratio at 1 h, 5 µM [27]: 0.8 | ED50 [42]: 1.7 mg/kg | pKi [32]: 8.05
